≈ marks a conversion by molar mass, not a printed value.
What was measured:
[1] = system: Leishmania donovani amastigotes; experiment: ROS generation in treated amastigotes (H2DCFDA); assay type: cell-based; details: 100, 50 or 25 μM, 24 hrs
Protocol: (§1) The degree of reactive oxygen species (ROS) production in treated promastigote and amastigote cells of L. donovani were assessed using the H2DCFDA (2’,7’-dichlorodihydrofluorescein diacetate) rich fluorescent dye (MAK145 Sigma-Aldrich) ROS detection kit. […] Amoxicillin was used as a positive control for pro-oxidative generation while Vitamin C was used as a positive control for anti-oxidative potential. The treated and untreated cells were then suspended in PBS, washed, and resuspended in PBS, then incubated with the ROS detection master mix for 1 hr as instructed by the protocol. The cells were analyzed for intracellular ROS generation by measuring the fluorescence intensity which is proportional to the ROS production level using the Varioskan Lux Elisa microplate reader (Thermo Fischer Scientific, USA) at a wavelength of 605 nm.

[2] = system: Leishmania donovani promastigotes; experiment: ROS generation in treated promastigotes (H2DCFDA); assay type: cell-based; details: 100, 50 or 25 μM, 72 hrs
Protocol: as §1

[3] = system: Leishmania donovani promastigotes; experiment: Antileishmanial activity against promastigotes (MTT assay); assay type: cell-based; details: for IC50 (μg/ml) ±SD promastigote / IC50: 96 hrs at 25° C, MTT, mean of three experiments; for Therapeutic Index (TC50/IC50) promastigotes: TC50 RAW / IC50 promastigote; for IC50: Leishmania donovani, read-out: IC50 (μg/ml) ±SD promastigote
Source text: Amphotericin B was used as a positive control. The 3-(4,5-Dimethylthiazol-2-yl)-2,5-diphenyltetrazolium bromide (MTT) assay was used to determine the parasite viability as previously described.

[4] = system: Leishmania donovani amastigotes in RAW macrophage cells; experiment: Antileishmanial activity against macrophage-amastigotes (MTT assay); assay type: cell-based; details: for Therapeutic Index (TC50/IC50) amastigotes: TC50 RAW / IC50 amastigote; for IC50 (μg/ml) ±SD amastigote / IC50: amastigotes in RAW macrophages, MTT; for IC50: Leishmania donovani, Macrophage, read-out: IC50 (μg/ml) ±SD amastigote
Protocol: The RAW macrophage cells were infected with promastigotes at a density of 1:10 ratio, respectively for 12 hrs and the non-phagocytosed promastigotes and media removed by aspiration. The RAW macrophages cells containing the internalized amastigote cells were treated with the compounds to test for their growth inhibitory potentials as previously described. The 3-(4,5-Dimethylthiazol-2-yl)-2,5-diphenyltetrazolium bromide (MTT) assay was also used to determine the parasite viability. […] was measured with a Varioskan Lux Elisa plate reader at a wavelength of 570 nm.

[5] = system: RAW 264.7 murine macrophage cell line; experiment: Cytotoxicity against mammalian RAW macrophage cell line (MTT assay); details: 48 hrs, 50% cytotoxic concentration
Source text: Here, amphotericin B was used as a positive control and the negative control was untreated RAW cell line.

[6] = system: O+ human red blood cells; experiment: Haemolytic potential; details: 2% haematocrit, up to 100 μg/ml
Protocol: The compounds were tested against the O^+ human red blood cells (obtained from the Malaria laboratory of WACCBIP) at a density of 2% haematocrit for their ability to lyse erythrocytes upon incubation. Here, a concentration of up to 100 μg/ml of compounds was used, and the 50% haemolytic concentration (HC50) of the compounds were determined by analysis of dose-response curves as described.

[7] = system: Leishmania donovani promastigotes; experiment: Morphological and mitochondrion effects by fluorescence microscopy (DAPI, MitoTracker); assay type: cell-based; details: for morphological / mitochondrial changes after 72 hrs: 2x IC50, 72 hrs
Protocol: Their mitochondrial integrity were analyzed using a slightly modified DAPI and Mitotracker dye protocol as described by Amisigo and colleagues.

[8] = system: Leishmania donovani promastigotes; experiment: Growth kinetics and cytocidal/cytostatic (growth reversibility) assay; assay type: cell-based; details: 1 μg/ml, 120 hrs treatment, then 96 hrs in fresh media
Protocol: The compounds (at 1 μg/ml) were tested for their effects on the growth kinetic pattern against the promastigotes of L. donovani. The parasite cells (2 x 10^5 cells/ml) were incubated at 25° C in the presence of the test compounds in M199 supplemented with 10% FBS. Amphotericin B treated parasites (0–50 μg/ml) were used as the positive control while the untreated promastigotes in medium alone served as the negative control. Viable cells were counted every 24 hrs for a total of 120 hrs as indicated in previous studies.
The cytocidal/cytostatic effect of the test compounds were assessed by analyzing the treated and untreated parasites after 120 hrs of incubation. Cells were washed twice with fresh M199, resuspended in complete M199 media and incubated further for 96 hrs. The viable cells were then counted microscopically.

| SMILES | ROS generation effect in amastigotes [1] | ROS generation effect in promastigotes [2] | IC50 (μg/ml) ±SD promastigote [3] [µg/mL] | Therapeutic Index (TC50/IC50) promastigotes [3] | Therapeutic Index (TC50/IC50) amastigotes [4] | IC50 (μg/ml) ±SD amastigote [4] [µg/mL] | TC50 (μg/ml) ±SD RAW [5] [µg/mL] | HC50 [6] [µg/mL] | IC50 [3] [µg/mL] | IC50 [4] [µg/mL] | cells with slight enlargement of nuclear and kinetoplast DNA ([7]; 2x IC50, 24 hrs) [%] | morphological / mitochondrial changes after 72 hrs [7] | cytocidal/cytostatic effect upon drug withdrawal [8] | morphological / mitochondrial changes after 24 hrs ([7]; 2x IC50, 24 hrs) |
| --- | --- | --- | --- | --- | --- | --- | --- | --- | --- | --- | --- | --- | --- | --- |
| CC1(C)S[C@@H]2[C@H](NC(=O)[C@H](N)c3ccc(O)cc3)C(=O)N2[C@H]1C(=O)O [Amoxicillin, reference compound] | pro-oxidative effect | pro-oxidative action | – | – | – | – | – | – | – | – | – | – | – | – |
| C[C@@H]1[C@H](O)[C@@H](C)/C=C/C=C/C=C/C=C/C=C/C=C/C=C/[C@H](O[C@@H]2O[C@H](C)[C@@H](O)[C@H](N)[C@@H]2O)C[C@@H]2O[C@](O)(C[C@@H](O)C[C@@H](O)[C@H](O)CC[C@@H](O)C[C@@H](O)CC(=O)O[C@H]1C)C[C@H](O)[C@H]2C(=O)O [Amphotericin B, reference compound] | anti-oxidative effect | anti-oxidative effect | – | – | – | – | – | – | – | – | – | – | – | – |
| O=C(Nc1ccc2c(c1)B(O)OC2)c1ccccc1C(F)(F)F [Compound A03B] | anti-oxidative effect | anti-oxidative effect | 0.44 ± 0.200 (≈ 1.37 µM) | 0.41 | 0.90 | 0.20 ± 0.030 (≈ 0.623 µM) | 0.18 ± 0.050 (≈ 0.561 µM) | >100 | – | – | – | – | – | – |
| O=C(NCc1nnc2n1CCCCC2)c1ccc(-c2ccc(F)cc2)o1 [Compound A06A] | – | anti-oxidative effect | – | 2.05 | 1.03 | – | 0.39 ± 0.05 (≈ 1.1 µM) | >100 | 0.19 ± 0.008 (≈ 0.536 µM) | 0.38 ± 0.01 (≈ 1.07 µM) | 50 | most of the few cells left lost their kinetoplast DNA | – | – |
| Clc1cccc(CO[C@H]2CCc3ccccc3[C@@H]2n2ccnn2)c1 [Compound A07E] | – | – | >6.25 | 0.07 | 0.07 | >6.25 | 0.41 ± 0.020 (≈ 1.21 µM) | >100 | – | – | – | – | – | – |
| Cc1ncc(-c2ccnc(Nc3ccc(S(C)(=O)=O)cc3)n2)n1C(C)C [Compound B03B] | anti-oxidative effect | pro-oxidative action | 0.20 ± 0.040 (≈ 0.538 µM) | 1.25 | 0.63 | 0.40 ± 0.050 (≈ 1.08 µM) | 0.25 ± 0.040 (≈ 0.673 µM) | >100 | – | – | – | – | cytocidal effect | – |
| COc1ccc(C2=NN(C3CCCCCC3)C(=O)[C@@H]3CC=CC[C@H]23)cc1OCCCCOc1ccc(-c2nn[nH]n2)cc1 [Compound C02B] | anti-oxidative effect | – | 0.15 ± 0.130 (≈ 0.257 µM) | 2.53 | 2.92 | 0.13 ± 0.004 (≈ 0.222 µM) | 0.38 ± 0.010 (≈ 0.65 µM) | >100 | – | – | – | – | – | – |
| CO[C@@H](C(=O)N1Cc2[nH]nc(NC(=O)c3ccc(N4CCN(C)CC4)cc3)c2C1)c1ccccc1 [Compound C03B] | – | pro-oxidative action | 0.62 ± 0.010 (≈ 1.31 µM) | 0.34 | – | >6.25 | 0.21 ± 0.010 (≈ 0.443 µM) | >100 | – | – | – | – | – | – |
| O=C(Nc1ccccc1-c1nc2c(C(=O)O)cccc2o1)c1ccccc1 [Compound C06D] | pro-oxidative effect | anti-oxidative effect | >6.25 | 0.06 | 0.13 | 3.0 ± 0.001 (≈ 8.37 µM) | 0.39 ± 0.010 (≈ 1.09 µM) | >100 | – | – | – | – | cytocidal effect | – |
| c1ccc(Oc2ccc(-c3cc(C4CCOCC4)n[nH]3)cc2)cc1 [Compound D02A] | – | – | – | 476.19 | 454.55 | – | >100 | >100 | 0.21 ± 0.01 (≈ 0.655 µM) | 0.22 ± 0.02 (≈ 0.687 µM) | – | degeneration of the nuclear and kinetoplast DNA continued | – | degeneration in the mitochondria integrity |
| N=C(N)c1ccc(-c2cc(-c3ccccc3)on2)cc1 [Compound E02A] | – | anti-oxidative effect | – | 344.83 | 18.73 | – | >100 | >100 | 0.29 ± 0.001 (≈ 1.1 µM) | 5.34 ± 0.01 (≈ 20.3 µM) | – | degenerate after 72 hrs | – | did not show marked morphological changes |
| CC1CCCCN1C(=O)NCCc1coc(-c2ccc(F)cc2)n1 (stereo not drawn) [Compound E05A] | – | anti-oxidative effect | 0.39 ± 0.060 (≈ 1.18 µM) | 256.41 | 36.50 | 2.74 ± 0.100 (≈ 8.27 µM) | >100 | >100 | – | – | – | – | – | – |
| CNC(=O)c1nn(C)c2c1C(C)(C)Cc1cnc(Nc3ccc(N4CCN(C)CC4)cc3)nc1-2 [Compound H02B] | pro-oxidative effect | anti-oxidative effect | 0.12 ± 0.150 (≈ 0.261 µM) | 0.92 | 0.02 | >6.25 | 0.11 ± 0.010 (≈ 0.239 µM) | >100 | – | – | – | – | cytocidal effect | – |
| CS(=O)(=O)c1ccccc1C(=O)N(Cc1ccccc1)c1ccccc1 [Compound H05A] | – | anti-oxidative effect | 0.78 ± 0.170 (≈ 2.13 µM) | 0.19 | 0.60 | 0.25 ± 0.040 (≈ 0.684 µM) | 0.15 ± 0.030 (≈ 0.41 µM) | >100 | – | – | – | – | – | – |
| CCN(CC)CCCCCCNc1cc(OC)cc2c(C)ccnc12 [MMV000063] | anti-oxidative effect | – | – | – | – | – | – | – | – | – | – | – | – | – |
| CCC(=O)Nc1ccccc1C(=O)Nc1ccccn1 [MMV202553] | – | anti-oxidative effect | – | – | – | – | – | – | – | – | – | – | – | – |
| CC(C)(C)OC(=O)N1CCN(c2cc(-c3ccc(Oc4ccccc4)cc3)n[nH]2)CC1 [MMV676057] | pro-oxidative effect | anti-oxidative effect | – | – | – | – | – | – | – | – | – | – | – | – |
| CCOc1ccc2cc(-c3nn(CC4CCN(C)CC4)c4ncnc(N)c34)ccc2c1 [MMV688854] | anti-oxidative effect | – | – | – | – | – | – | – | – | – | – | – | – | – |
| CCc1nn(C)c(C(=O)NCc2ccc(Oc3ccc(C)cc3)cc2)c1Cl [MMV688934] | – | anti-oxidative effect | – | – | – | – | – | – | – | – | – | – | – | – |
| CC(C)(C)C(O)C(Oc1ccc(-c2ccccc2)cc1)n1cncn1 (stereo not drawn) [MMV688942] | – | anti-oxidative effect | – | – | – | – | – | – | – | – | – | – | – | – |
| Nc1ncnc2c1ncn2C[C@@H](O)[C@@H](O)C(=O)O [MMV689255] | anti-oxidative effect | – | – | – | – | – | – | – | – | – | – | – | – | – |
| O=C1O[C@H]([C@@H](O)CO)C(O)=C1O [Vitamin C, reference compound] | anti-oxidative effect | anti-oxidative effect | – | – | – | – | – | – | – | – | – | – | – | – |
